In patent US10821115B2, “Compounds that inhibit Mcl-1 protein” (priority 2017, dated 2020):

Assays:
[1] = test system: human multiple myeloma cell line, OPM-2; assay: Cell viability assay (OPM-2 10 FBS), CellTiter-Glo; format: cell-based; details: Homo sapiens, OPM-2, 16 h, read-out: OPM-2 10% FBS IC50 IP, OPM-2 cells, 10% FBS, 16 h incubation
Procedure, shortened: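 IC50 values come from 4-parameter logistic fits of luminescence signals reflecting cell viability. Treatment lasted 16 h at 37 °C in complete medium with 10% FBS, starting from 3000 cells/well.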

[2] = molecular target: recombinant human Mcl-1 (residues 171-327) / Bim interaction (Homo sapiens (Human), UniProt Q07820); assay: biochemical; format: binding; details: 0.1 nM Mcl-1(171-327), 0.05 nM biotin-Bim (51-76); read-out: Mcl-1 HTRF IC50
recombinant human Mcl-1 (residues 171-327) / Bim interaction, sequence (Q07820 171-327): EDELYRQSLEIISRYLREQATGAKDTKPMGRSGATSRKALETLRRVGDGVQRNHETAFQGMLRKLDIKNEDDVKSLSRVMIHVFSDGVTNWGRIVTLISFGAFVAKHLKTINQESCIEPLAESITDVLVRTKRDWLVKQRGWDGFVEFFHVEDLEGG

| SMILES | IC50 [1] | IC50 [2] |
| --- | --- | --- |
| CO[C@@]1(CN2CCN3C[C@H](C)OC[C@@H]3C2)/C=C/C[C@H](C)[C@@H](C)S(=O)(=O)NC(=O)c2ccc3c(c2)N(C[C@@H]2CC[C@H]21)C[C@@]1(CCCc2cc(Cl)ccc21)CO3 [Example 145, (1S,3′R,6′R,7′S,8′E,11′S,12′R)-6-chloro-7′-methoxy-11′,12′-dimethyl-7′-(((3S,9aS)-3-methylhexahydropyrazino[2,1-c][1,4]oxazin-8(1H)-yl)methyl)-3,4-dihydro-2H,15′H-spiro[naphthalene-1,22′-[20]oxa[13]thia[1,14]diazatetracyclo [14.7.2.0~3,6~.0~19,24~]pentacosa[8,16,18,24]tetraen]-15′-one 13′,13′-dioxide] | 113 nM | 0.124 nM |
| CO[C@]1(CN2CCN3C[C@H](C)OC[C@@H]3C2)/C=C/C[C@H](C)[C@@H](C)S(=O)(=O)NC(=O)c2ccc3c(c2)N(C[C@@H]2CC[C@H]21)C[C@@]1(CCCc2cc(Cl)ccc21)CO3 [Example 146, (1S,3′R,6′R,7′R,8′E,11′S,12′R)-6-chloro-7′-methoxy-11′,12′-dimethyl-7′-(((3S,9aS)-3-methylhexahydropyrazino[2,1-c][1,4]oxazin-8(1H)-yl)methyl)-3,4-dihydro-2H,15′H-spiro[naphthalene-1,22′-[20]oxa[13]thia[1,14]diazatetracyclo [14.7.2.0~3,6~.0~19,24~]pentacosa[8,16,18,24]tetraen]-15′-one 13′,13′-dioxide] | 150 nM | 0.337 nM |
| CO[C@@]1(CN2CCN3C[C@@H](C)OC[C@@H]3C2)/C=C/C[C@H](C)[C@@H](C)S(=O)(=O)NC(=O)c2ccc3c(c2)N(C[C@@H]2CC[C@H]21)C[C@@]1(CCCc2cc(Cl)ccc21)CO3 [Example 147, (1S,3′R,6′R,7′S,8′E,11′S,12′R)-6-chloro-7′-methoxy-11′,12′-dimethyl-7′-(((3R,9aS)-3-methylhexahydropyrazino[2,1-c][1,4]oxazin-8(1H)-yl)methyl)-3,4-dihydro-2H,15′H-spiro[naphthalene-1,22′-[20]oxa[13]thia[1,14]diazatetracyclo [14.7.2.0~3,6~.0~19,24~]pentacosa[8,16,18,24]tetraen]-15′-one 13′,13′-dioxide] | 157 nM | 0.376 nM |
| CO[C@@]1(CN2CCc3ccccc3C2)/C=C/C[C@H](C)[C@@H](C)S(=O)(=O)NC(=O)c2ccc3c(c2)N(C[C@@H]2CC[C@H]21)C[C@@]1(CCCc2cc(Cl)ccc21)CO3 [Example 148, (1S,3′R,6′R,7′S,8′E,11′S,12′R)-6-chloro-7′-(3,4-dihydro-2(1H)-isoquinolinylmethyl)-7′-methoxy-11′,12′-dimethyl-3,4-dihydro-2H,15′H-spiro[naphthalene-1,22′-[20]oxa[13]thia[1,14]diazatetracyclo [14.7.2.0~3,6~.0~19,24~]pentacosa[8,16,18,24]tetraen]-15′-one 13′,13′-dioxide] | 1610 nM | 1.2 nM |
| CO[C@]1(CN2CC(=O)N3CCCC[C@@H]3C2)/C=C/C[C@H](C)[C@@H](C)S(=O)(=O)NC(=O)c2ccc3c(c2)N(C[C@@H]2CC[C@H]21)C[C@@]1(CCCc2cc(Cl)ccc21)CO3 [Example 149] | 119 nM | 0.128 nM |
| CO[C@@]1(CN2CC(=O)N3CCCC[C@@H]3C2)/C=C/C[C@H](C)[C@@H](C)S(=O)(=O)NC(=O)c2ccc3c(c2)N(C[C@@H]2CC[C@H]21)C[C@@]1(CCCc2cc(Cl)ccc21)CO3 [Example 150, (1S,3′R,6′R,7′S,8′E,11′S,12′R)-6-chloro-7′-methoxy-11′,12′-dimethyl-7′-(((9aR)-4-oxooctahydro-2H-pyrido[1,2-a]pyrazin-2-yl)methyl)-3,4-dihydro-2H,15′H-spiro[naphthalene-1,22′-[20]oxa[13]thia[1,14]diazatetracyclo [14.7.2.0~3,6~.0~19,24~]pentacosa[8,16,18,24]tetraen]-15′-one 13′,13′-dioxide] | 245 nM | 0.193 nM |
| COCCO[C@]1(CN2CCN3CCCC[C@@H]3C2)/C=C/C[C@H](C)[C@@H](C)S(=O)(=O)NC(=O)c2ccc3c(c2)N(C[C@@H]2CC[C@H]21)C[C@@]1(CCCc2cc(Cl)ccc21)CO3 [Example 152, (1S,3′R,6′R,7′R,8′E,11′S,12′R)-6-chloro-7′-(2-methoxyethoxy)-11′,12′-dimethyl-7′-((9aR)-octahydro-2H-pyrido[1,2-a]pyrazin-2-ylmethyl)-3,4-dihydro-2H,15′H-spiro[naphthalene-1,22′-[20]oxa[13]thia[1,14]diazatetracyclo [14.7.2.0~3,6~.0~19,24~]pentacosa[8,16,18,24]tetraen]-15′-one 13′,13′-dioxide] | 110 nM | 0.092 nM |
| CO[C@]1(CN2CCN(CC(C)(C)C)CC2)/C=C/C[C@H](C)[C@@H](C)S(=O)(=O)NC(=O)c2ccc3c(c2)N(C[C@@H]2CC[C@H]21)C[C@@]1(CCCc2cc(Cl)ccc21)CO3 [Example 153, (1S,3′R,6′R,7′R,8′E,11′S,12′R)-6-chloro-7′-((4-(2,2-dimethylpropyl)-1-piperazinyl)methyl)-7′-methoxy-11′,12′-dimethyl-3,4-dihydro-2H,15′H-spiro[naphthalene-1,22′-[20]oxa[13]thia[1,14]diazatetracyclo [14.7.2.0~3,6~.0~19,24~]pentacosa[8,16,18,24]tetraen]-15′-one 13′,13′-dioxide] | 10800 nM | 0.96 nM |
| C[C@@H]1[C@@H](C)C/C=C/[C@@](CN2CCN3CCCC[C@@H]3C2)(OCC2CC2)[C@@H]2CC[C@H]2CN2C[C@@]3(CCCc4cc(Cl)ccc43)COc3ccc(cc32)C(=O)NS1(=O)=O [Example 155, (1S,3′R,6′R,7′R,8′E,11′S,12′R)-6-chloro-7′-(cyclopropylmethoxy)-11′,12′-dimethyl-7′-((9aR)-octahydro-2H-pyrido[1,2-a]pyrazin-2-ylmethyl)-3,4-dihydro-2H,15′H-spiro[naphthalene-1,22′-[20]oxa[13]thia[1,14]diazatetracyclo [14.7.2.0~3,6~.0~19,24~]pentacosa[8,16,18,24]tetraen]-15′-one 13′,13′-dioxide] | 378 nM | 0.228 nM |
| CO[C@@]1(CN2CCN3CCOC[C@@H]3C2)/C=C/[C@H](C)[C@H](C)CS(=O)(=O)NC(=O)c2ccc3c(c2)N(C[C@@H]2CC[C@H]21)C[C@@]1(CCCc2cc(Cl)ccc21)CO3 [Example 156, (1S,3′R,6′R,7′S,8′E,10′S,11′S)-6-chloro-7′-((9aS)-hexahydropyrazino[2,1-c][1,4]oxazin-8(1H)-ylmethyl)-7′-methoxy-10′,11′-dimethyl-3,4-dihydro-2H,15′H-spiro[naphthalene-1,22′-[20]oxa[13]thia[1,14]diazatetracyclo [14.7.2.0~3,6~.0~19,24~]pentacosa[8,16,18,24]tetraen]-15′-one 13′,13′-dioxide] | 62 nM | 0.096 nM |
| CO[C@]1(CN2CCN3CCOC[C@@H]3C2)/C=C/[C@H](C)[C@H](C)CS(=O)(=O)NC(=O)c2ccc3c(c2)N(C[C@@H]2CC[C@H]21)C[C@@]1(CCCc2cc(Cl)ccc21)CO3 [Example 157, (1S,3′R,6′R,7′R,8′E,10′S,11′S)-6-chloro-7′-((9aS)-hexahydropyrazino[2,1-c][1,4]oxazin-8(1H)-ylmethyl)-7′-methoxy-10′,11′-dimethyl-3,4-dihydro-2H,15′H-spiro[naphthalene-1,22′-[20]oxa[13]thia[1,14]diazatetracyclo [14.7.2.0~3,6~.0~19,24~]pentacosa[8,16,18,24]tetraen]-15′-one 13′,13′-dioxide] | 121 nM | 0.126 nM |
| CO[C@@]1(CN2CCN(C3COC3)CC2)/C=C/[C@H](C)[C@H](C)CS(=O)(=O)NC(=O)c2ccc3c(c2)N(C[C@@H]2CC[C@H]21)C[C@@]1(CCCc2cc(Cl)ccc21)CO3 [Example 158, (1S,3′R,6′R,7′S,8′E,10′S,11′S)-6-chloro-7′-methoxy-10′,11′-dimethyl-7′-((4-(3-oxetanyl)-1-piperazinyl)methyl)-3,4-dihydro-2H,15′H-spiro[naphthalene-1,22′-[20]oxa[13]thia[1,14]diazatetracyclo [14.7.2.0~3,6~.0~19,24~]pentacosa[8,16,18,24]tetraen]-15′-one 13′,13′-dioxide] | 18 nM | 0.092 nM |
| CO[C@]1(CN2CCN(C3COC3)CC2)/C=C/[C@H](C)[C@H](C)CS(=O)(=O)NC(=O)c2ccc3c(c2)N(C[C@@H]2CC[C@H]21)C[C@@]1(CCCc2cc(Cl)ccc21)CO3 [Example 159, (1S,3′R,6′R,7′R,8′E,10′S,11′S)-6-chloro-7′-methoxy-10′,11′-dimethyl-7′-((4-(3-oxetanyl)-1-piperazinyl)methyl)-3,4-dihydro-2H,15′H-spiro[naphthalene-1,22′-[20]oxa[13]thia[1,14]diazatetracyclo [14.7.2.0~3,6~.0~19,24~]pentacosa[8,16,18,24]tetraen]-15′-one 13′,13′-dioxide] | 79 nM | 0.096 nM |
| CO[C@]1(CN2CCN(C)CC2)/C=C/[C@H](C)[C@H](C)CS(=O)(=O)NC(=O)c2ccc3c(c2)N(C[C@@H]2CC[C@H]21)C[C@@]1(CCCc2cc(Cl)ccc21)CO3 [Example 160, (1S,3′R,6′R,7′R,8′E,10′S,11′S)-6-chloro-7′-methoxy-10′,11′-dimethyl-7′-((4-methyl-1-piperazinyl)methyl)-3,4-dihydro-2H,15′H-spiro[naphthalene-1,22′-[20]oxa[13]thia[1,14]diazatetracyclo [14.7.2.0~3,6~.0~19,24~]pentacosa[8,16,18,24]tetraen]-15′-one 13′,13′-dioxide] | 148 nM | 0.221 nM |
